Test results as given in patent publication US9353104B2, “Substituted pyridizinone derivatives as PDE10 inhibitors” (priority 2013, dated 2016).

Each compound was assayed against human PDE10A2 (Homo sapiens (Human), UniProt Q9Y233) (assay: PDE10 fluorescence polarization (IMAP FP) inhibition assay). Details: human PDE10A2 lysate, FAM-labeled cAMP 50 nM, room temperature; read-out: PDE10A Ki.
Type: biochemical
Method: The activity of the compounds in accordance with the present invention as PDE10 inhibitors may be readily determined without undue experimentation using a fluorescence polarization (FP) methodology that is well known in the art (Huang, W., et al., J. Biomol Screen, 2002, 7: 215). […] In a typical experiment the PDE10 inhibitory activity of the compounds of the present invention was determined in accordance with the following experimental method. PDE10A2 was amplified from human fetal brain cDNA (Clontech, Mountain View, Calif.) using a forward primer corresponding to nucleotides 56-77 of human PDE10A2 (Accession No. AF127480, Genbank Identifier 4894716), containing a Kozak consensus sequence, and a reverse primer corresponding to nucleotides 2406-2413 of human PDE10A2 (Accession No. AF127480, Genbank Identifier 4894716). Amplification with Easy-A polymerase (Stratagene, La Jolla, Calif.) was 95° C. for 2 minutes followed by thirty three cycles of 95° C. for 40 seconds, 55° C. for 30 seconds, and 72° C. for 2 minutes 48 seconds. Final extension was 72° C. for 7 minutes. The PCR product was TA cloned into pcDNA3.2-TOPO (Invitrogen, Carlsbad, Calif.) according to standard protocol. AD293 cells with 70-80% confluency were transiently transfected with human PDE10A2/pcDNA3.2-TOPO using Lipofectamine 2000 according to manufacturer specifications (Invitrogen, Carlsbad, Calif.). Cells were harvested 48 hours post-transfection and lysed by sonication (setting 3, 10×5 sec pulses) in a buffer containing 20 mM HEPES, 1 mM EDTA and protease inhibitor cocktail (Roche). Lysate was collected by centrifugation at 75,000×g for 20 minutes. Supernatant containing the cytoplasmic fraction was used for evaluation of PDE10A2 activity. The fluorescence polarization assay for cyclic nucleotide phosphodiesterases was performed using an IMAP® FP kit supplied by Molecular Devices, Sunnyvale, Calif. (product #R8139). IMAP® technology has been applied previously to phosphodiesterase assays (Huang, W., et al., J. Biomol Screen, 2002, 7: 215). Assays were performed at room temperature in 384-well microtiter plates with an incubation volume of 20.2 μL. Solutions of test compounds were prepared in DMSO and serially diluted with DMSO to yield 8 μL of each of 10 solutions differing by 3-fold in concentration, at 32 serial dilutions per plate. 100% inhibition is determined using a known PDE10 inhibitor, which can be any compound that is present at 5,000 times its Ki value in the assay described as follows, such as papaverine (see Siuciak, et al. Neuropharmacology (2006) 51:386-396; Becker, et al. Behav Brain Res (2008) 186(2):155-60; Threlfell, et al., J Pharmacol Exp Ther (2009) 328(3):785-795), 2-{4-[pyridin-4-yl-1-(2,2,2-trifluoroethyl)-1H-pyrazol-3-yl]phenoxymethyl}quinoline succinic acid or 2-[4-(1-methyl-4-pyridin-4-yl-1H-pyrazol-3-yl)-phenoxymethyl]quinoline succinic acid (see Schmidt, et al. J Pharmacol Exp Ther (2008) 325:681-690; Threlfell, et al., J Pharmacol Exp Ther (2009) 328(3): 785-795). 0% of inhibition is determined by using DMSO (1% final concentrations).
A Labcyte Echo 555 (Labcyte, Sunnyvale, Calif.) is used to dispense 200 nL from each well of the titration plate to the 384 well assay plate. A solution of enzyme (1/1600 dilution from aliquots; sufficient to produce 20% substrate conversion) and a separate solution of FAM-labeled cAMP PDE from Molecular Devices (product #R7506), at a final concentration of 50 nM are made in the assay buffer (10 mM Tris HCl, pH 7.2, 10 mM MgCl2, 0.05% NaN3 0.01% Tween-20, and 1 mM DTT). The enzyme and the substrate are then added to the assay plates in two consecutive additions of 10 μL, and then shaken to mix. The reaction is allowed to proceed at room temperature for 30 minutes. A binding solution is then made from the kit components, comprised of 80% Solution A, 20% Solution B and binding reagent at a volume of 1/600 the total binding solution.

human PDE10A2, sequence (Q9Y233 267-1055): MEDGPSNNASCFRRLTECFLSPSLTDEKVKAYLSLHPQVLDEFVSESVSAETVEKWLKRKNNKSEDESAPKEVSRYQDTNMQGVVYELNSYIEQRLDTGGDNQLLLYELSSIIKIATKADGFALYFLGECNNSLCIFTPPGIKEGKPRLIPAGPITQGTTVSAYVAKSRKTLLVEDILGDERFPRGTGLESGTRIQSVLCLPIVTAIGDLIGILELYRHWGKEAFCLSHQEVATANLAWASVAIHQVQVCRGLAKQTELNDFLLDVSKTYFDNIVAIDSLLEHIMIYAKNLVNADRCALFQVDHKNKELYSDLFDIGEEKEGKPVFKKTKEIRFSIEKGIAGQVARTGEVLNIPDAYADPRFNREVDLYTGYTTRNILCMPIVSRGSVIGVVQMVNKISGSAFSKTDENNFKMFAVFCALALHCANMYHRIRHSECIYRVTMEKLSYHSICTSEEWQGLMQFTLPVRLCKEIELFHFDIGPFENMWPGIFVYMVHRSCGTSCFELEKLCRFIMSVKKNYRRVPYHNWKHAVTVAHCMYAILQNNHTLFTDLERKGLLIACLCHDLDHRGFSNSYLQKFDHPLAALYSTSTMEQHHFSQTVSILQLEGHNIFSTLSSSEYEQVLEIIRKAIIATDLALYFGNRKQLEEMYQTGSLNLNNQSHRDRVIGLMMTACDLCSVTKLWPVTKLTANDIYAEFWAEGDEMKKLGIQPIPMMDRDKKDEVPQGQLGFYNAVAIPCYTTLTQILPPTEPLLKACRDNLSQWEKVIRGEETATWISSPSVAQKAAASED

Ki	Compound
2.7 nM	COc1ccc([C@H]2C[C@@H]2COc2cc(NCc3cccc(C)n3)c(=O)n(C)n2)nc1 [Example 97, 6-(((1S,2S)-2-(5-methoxypyridin-2-yl)-cyclopropyl)methoxy)-2-methyl-4-(((6-methyl-pyridin-2-yl)methyl)-amino)pyridazin-3(2H)one]
0.552 nM	Cn1cc(CNc2cc(OC[C@H]3C[C@@H]3c3ccc(OC(F)F)cn3)nn(C)c2=O)cn1 [Example 30, 6-(((1S,2S)-2-(5-(difluoromethoxy)pyridin-2-yl)cyclopropyl)methoxy)-2-methyl-4-((1-methyl-1H-pyrazol-4-yl)methylamino)pyridazin-3(2H)-one]
0.911 nM	Cc1nnc(CN(C)c2cc(OC[C@H]3C[C@@H]3c3ccc4ccccc4n3)nn(C)c2=O)s1 [Example 36, 2-methyl-4-(methyl((5-methyl-1,3,4-thiadiazol-2-yl)methyl)amino)-6-(((1S,2S)-2-(quinolin-2-yl)cyclopropyl)methoxy)-pyridazin-3(2H)-one]
0.005 nM	Cn1cc(CNc2cc(OC[C@H]3C[C@@H]3c3ccc4c(n3)CCC4)nn(C)c2=O)cn1 [Example 125, 6-(((1S,2S)-2-(6,7-dihydro-5H-cyclopenta[b]pyridin-2-1)cyclopropyl)methoxy)-2-methyl-4-((1-methyl-1H-pyrazol-4-yl)methylamino-)pyridazin-3(2H)-one]
5.9 nM	COc1ccc([C@H]2C[C@@H]2COc2cc(N(Cc3ccc(C)nc3C)Cc3ccc(C)nc3C)c(=O)n(C)n2)nc1 [Example 91, 4-(bis((2,6-dimethylpyridin-3-yl)methyl)amino)-6-(((1S,2S)-2-(5-methoxypyridin-2-yl)cyclopropyl)methoxy)-2-methylpyridazin-3(2H)-one]
0.176 nM	Cc1cnc(CNc2cc(OC[C@H]3C[C@@H]3c3ccc(F)cn3)nn(C)c2=O)s1 [Example 32, 6-(((1S,2S)-2-(5-fluoropyridin-2-yl)cyclopropyl)methoxy)-2-methyl-4-((5-methylthiazol-2-yl)methylamino)pyridazin-3(2H)-one]
11.8 nM	Cc1nn(C)c(Cl)c1CNc1cc(OC[C@H]2C[C@@H]2c2ccn(C)n2)nn(C)c1=O [Example 40]
0.027 nM	CCc1cc(CNc2cc(OC[C@H]3C[C@@H]3c3ccc(C)cn3)nn(C)c2=O)n(C)n1 [Example 138, 4-((3-ethyl-1-methyl-1H-pyrazol-5-yl)methylamino)-2-methyl-6-(((1S,2S)-2-(5-methylpyridin-2-yl)cyclopropyl)methoxy) pyridazin-3(2H)-one]
0.295 nM	CCc1cc(CNc2cc(OC[C@H]3C[C@@H]3c3ccn(C)n3)nn(C)c2=O)n(C)n1 [Example 139, 4-((3-ethyl-1-methyl-1H-pyrazol-5-yl)methylamino)-2-methyl-6-(((1S,2S)-2-(1-methyl-1H-pyrazol-3-yl)cyclopropyl)methoxy) pyridazin-3(2H)-one]
0.099 nM	Cc1cc(CNc2cc(OC[C@H]3C[C@@H]3c3ccc(F)cn3)nn(C)c2=O)n(C)n1 [Example 18]
> 100 nM	Cc1nc(CNc2cc(OC[C@H]3C[C@@H]3c3ccn(C)n3)nn(C)c2=O)cs1 [Example 48]
2.8 nM	COc1ccc([C@H]2C[C@@H]2COc2cc(NCc3nc(C)nn3C)c(=O)n(C)n2)nc1 [Example 88, 4-(((1,3-dimethyl-1H-1,2,4-triazol-5-yl)methyl)amino)-6-(((1S,2S)-2-(5-methoxypyridin-2-yl)cyclopropyl)methoxy)-2-methylpyridazin-3(2H)-one]

Further lines, the compound ahead of its results:

Compound	Ki
COc1ccc([C@H]2C[C@@H]2COc2cc(NCc3nc(C)ccc3F)c(=O)n(C)n2)nc1 [Example 70, 4-(((3-fluoro-6-methyl-pyridin-2-yl)methyl)-amino)-6-(((1S,2S)-2-(5-methoxypyridin-2-yl)-cyclopropyl)methoxy)-2-methylpyridazin-3(2H)one]	55.1 nM
Cc1cnc(CNc2cc(OC[C@@H]3C[C@H]3c3nn(C)c4ccccc34)nn(C)c2=O)s1 [Example 114, 2-methyl-6-(((1R,2R)-2-(1-methyl-1H-indazol-3-yl)cyclopropyl)methoxy)-4-((5-methylthiazol-2-yl)methylamino)pyridazin-3(2H)-one]	0.118 nM
Cc1ccc([C@H]2C[C@@H]2COc2cc(NCc3cnn(C)c3)c(=O)n(C)n2)nc1 [Example 10, 2-methyl-4-((1-methyl-1H-pyrazol-4-yl)methylamino)-6-(((1S,2S)-2-(5-methylpyridin-2-yl)cyclopropyl)methoxy)-pyridazin-3(2H)-one]	0.072 nM
Cc1nc(CNc2cc(OC[C@H]3C[C@@H]3c3ccn(C)n3)nn(C)c2=O)sc1C [Example 128, 4-((4,5-dimethylthiazol-2-yl)methylamino)-2-methyl-6-(((1S,2S)-2-(1-methyl-1H-pyrazol-3-yl)cyclo-propyl)methoxy)pyridazin-3(2H)-one]	0.368 nM
Cc1ccc([C@H]2C[C@@H]2COc2cc(NCc3ncc(C)s3)c(=O)n(C)n2)nc1 [Example 31, 2-methyl-6-(((1S,2S)-2-(5-methylpyridin-2-yl)cyclopropyl)methoxy)-4-((5-methylthiazol-2-yl)methylamino)pyridazin-3(2H)-one]	0.007 nM
Cn1ccc([C@H]2C[C@@H]2COc2cc(NCc3ccnn3C)c(=O)n(C)n2)n1 [Example 98, 2-methyl-6-(((1S,2S)-2-(1-methyl-1H-pyrazol-3-yl)cyclopropyl)methoxy)-4-(((1-methyl-1H-pyrazol-5-yl)methyl)amino)-pyridazin-3(2H)-one]	1.5 nM
COc1ccc([C@H]2C[C@@H]2COc2cc(NCc3cccnc3)c(=O)n(C)n2)nc1 [Example 135, 6-(((1S,2S)-2-(5-methoxy-pyridin-2-yl)cyclopropyl-)methoxy)-2-methyl-4-(pyridin-3-ylmethylamino-)pyridazin-3(2H)-one]	0.261 nM
COc1ccc([C@H]2C[C@@H]2COc2cc(NCc3cnccn3)c(=O)n(C)n2)nc1 [Example 66, 6-(((1S,2S)-2-(5-methoxypyridin-2-yl)cyclopropyl)methoxy)-2-methyl-4-((pyrazin-2-ylmethyl)amino)pyridazin-3(2H)-one]	5.7 nM
CCn1ccc(CNc2cc(OC[C@H]3C[C@@H]3c3ccc(OC)cn3)nn(C)c2=O)n1 [Example 106, 4-(((1-ethyl-1H-pyrazol-3-yl)methyl)amino)-6-(((-1S,2S)-2-(5-methoxy-pyridin-2-yl)cyclopropyl-)methoxy)-2-methyl-pyridazin-3(2H)-one]	5.89 nM
Cc1ccc(CNc2cc(OC[C@H]3C[C@@H]3c3ccc(OC(F)F)cn3)nn(C)c2=O)c(C)n1 [Example 58, 6-(((1S,2S)-2-(5-(difluoromethoxy)pyridin-2-yl)cyclopropyl)-methoxy)-4-(((2,6-di-methylpyridin-3-yl)-methyl)amino)-2-methyl-pyridazin-3(2H)-one]	0.028 nM
COc1ccc(Cn2nc(OC[C@H]3C[C@@H]3c3ccc(OC)cn3)cc(NCc3nnc(C)s3)c2=O)cc1 [Example 142, 2-(4-methoxybenzyl)-6-(((1S,2S)-2-(5-methoxy-pyridin-2-yl)cyclopropyl-)methoxy)-4-((5-methyl-1,3,4-thiadiazol-2-yl)methyl-amino)pyridazin-3(2H)-one]	75 nM
Cc1cc(CNc2cc(OC[C@H]3C[C@@H]3c3ccn(C)n3)nn(C)c2=O)nn1C [Example 129, 4-((1,5-dimethyl-1H-pyrazol-3-yl)methylamino)-2-methyl-6-(((1S,2S)-2-(1-methyl-1H-pyrazol-3-yl)cyclopropyl)methoxy) pyridazin-3(2H)-one]	3.6 nM
